Drawing on US7074789B2, “Kinase inhibitors” (Amgen Inc., priority 1999, dated 2006), this text covers IC50 for 14 compounds.

Molecules are shown by their SMILES. Read-outs that look alike come from different tables or passages of the source.

Assay type in all cases: biochemical
In one experiment the target is T1, Lck (Homo sapiens, UniProt P06239).
T1 construct: Kinases are expressed as either kinase domains or full length constructs; made in house
Nature of the experiment: Kinase inhibition assay (33P transfer), Lck. The settings on record: read-out: Lck-1. The method in brief: (§1)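 Recombinant kinase-domain or full-length fusion proteins (GST or His tag) served as enzyme. Substrate poly(Glu,Tyr) 4:1 or poly(Arg,Ser) 3:1 was bound to the plate; transferred 33P was read by liquid scintillation following acid washing.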

The target in the next experiment is T2, Itk (Homo sapiens, UniProt Q08881).
T2 construct: Kinases are expressed as either kinase domains or full length constructs; made in house
T2 sequence (Q08881 1-620): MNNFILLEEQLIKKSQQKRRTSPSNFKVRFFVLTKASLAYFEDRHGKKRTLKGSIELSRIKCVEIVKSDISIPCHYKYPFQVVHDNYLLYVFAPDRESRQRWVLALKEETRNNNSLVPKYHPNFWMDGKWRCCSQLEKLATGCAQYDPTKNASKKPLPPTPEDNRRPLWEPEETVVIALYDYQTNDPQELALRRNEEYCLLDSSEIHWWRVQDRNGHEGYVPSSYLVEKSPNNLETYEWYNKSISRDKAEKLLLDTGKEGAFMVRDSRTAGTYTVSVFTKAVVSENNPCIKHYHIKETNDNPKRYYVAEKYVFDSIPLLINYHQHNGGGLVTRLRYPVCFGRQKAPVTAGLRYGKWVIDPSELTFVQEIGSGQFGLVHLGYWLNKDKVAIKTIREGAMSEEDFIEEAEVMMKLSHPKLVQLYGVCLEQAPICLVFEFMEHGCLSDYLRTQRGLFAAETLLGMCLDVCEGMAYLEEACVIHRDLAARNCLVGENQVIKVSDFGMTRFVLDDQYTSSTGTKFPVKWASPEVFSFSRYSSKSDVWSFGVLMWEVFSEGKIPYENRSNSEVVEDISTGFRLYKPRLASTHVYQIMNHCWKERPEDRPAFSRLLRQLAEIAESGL
Briefly: Kinase inhibition assay (33P transfer), Itk. The settings on record: read-out: Itk-1. The method in brief: (§2)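 Recombinant kinase domains or full-length GST- or His-tagged constructs, from E. coli or baculovirus/High Five cells, sometimes with regulatory polypeptides. Transfer of 33P from ATP to plate-bound poly(Glu,Tyr) 4:1 or poly(Arg,Ser) 3:1 counted by liquid scintillation after phosphoric acid wash; IC50 is the concentration halving incorporation.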

For another experiment, the target named is T3, IGFR-1 (Homo sapiens, UniProt P08069).
T3 construct: Kinases are expressed as either kinase domains or full length constructs; made in house
Nature of the experiment: Kinase inhibition assay, IGFR-1 (Table 2). The settings on record: Table 2, kinase inhibition class.

The next experiment has as its target T4, Kdr (Homo sapiens, UniProt P35968).
T4 construct: Kinases are expressed as either kinase domains or full length constructs; made in house
Briefly: Kinase inhibition assay (33P transfer), Kdr. The method in brief:
as §1

Another experiment concerns the target T5, EGFR (Homo sapiens, UniProt P00533).
T5 construct: Kinases are expressed as either kinase domains or full length constructs; made in house
Nature of the experiment: Kinase inhibition assay (33P transfer), EGFR. The settings on record: Table 2, kinase inhibition class; read-out: EGFR-1. The method in brief: as §2

Another experiment addresses T6, AKT (Homo sapiens, UniProt Q9Y243).
T6 construct: Kinases are expressed as either kinase domains or full length constructs; made in house
Nature of the experiment: Kinase inhibition assay (33P transfer), AKT. As to conditions: Table 2, kinase inhibition class; read-out: AKT3-1. The method in brief: as §1

The target in another experiment is T7, ErbB2 (Homo sapiens, UniProt P04626).
T7 construct: Kinases are expressed as either kinase domains or full length constructs; made in house
T7 sequence (P04626 23-1255, species assumed): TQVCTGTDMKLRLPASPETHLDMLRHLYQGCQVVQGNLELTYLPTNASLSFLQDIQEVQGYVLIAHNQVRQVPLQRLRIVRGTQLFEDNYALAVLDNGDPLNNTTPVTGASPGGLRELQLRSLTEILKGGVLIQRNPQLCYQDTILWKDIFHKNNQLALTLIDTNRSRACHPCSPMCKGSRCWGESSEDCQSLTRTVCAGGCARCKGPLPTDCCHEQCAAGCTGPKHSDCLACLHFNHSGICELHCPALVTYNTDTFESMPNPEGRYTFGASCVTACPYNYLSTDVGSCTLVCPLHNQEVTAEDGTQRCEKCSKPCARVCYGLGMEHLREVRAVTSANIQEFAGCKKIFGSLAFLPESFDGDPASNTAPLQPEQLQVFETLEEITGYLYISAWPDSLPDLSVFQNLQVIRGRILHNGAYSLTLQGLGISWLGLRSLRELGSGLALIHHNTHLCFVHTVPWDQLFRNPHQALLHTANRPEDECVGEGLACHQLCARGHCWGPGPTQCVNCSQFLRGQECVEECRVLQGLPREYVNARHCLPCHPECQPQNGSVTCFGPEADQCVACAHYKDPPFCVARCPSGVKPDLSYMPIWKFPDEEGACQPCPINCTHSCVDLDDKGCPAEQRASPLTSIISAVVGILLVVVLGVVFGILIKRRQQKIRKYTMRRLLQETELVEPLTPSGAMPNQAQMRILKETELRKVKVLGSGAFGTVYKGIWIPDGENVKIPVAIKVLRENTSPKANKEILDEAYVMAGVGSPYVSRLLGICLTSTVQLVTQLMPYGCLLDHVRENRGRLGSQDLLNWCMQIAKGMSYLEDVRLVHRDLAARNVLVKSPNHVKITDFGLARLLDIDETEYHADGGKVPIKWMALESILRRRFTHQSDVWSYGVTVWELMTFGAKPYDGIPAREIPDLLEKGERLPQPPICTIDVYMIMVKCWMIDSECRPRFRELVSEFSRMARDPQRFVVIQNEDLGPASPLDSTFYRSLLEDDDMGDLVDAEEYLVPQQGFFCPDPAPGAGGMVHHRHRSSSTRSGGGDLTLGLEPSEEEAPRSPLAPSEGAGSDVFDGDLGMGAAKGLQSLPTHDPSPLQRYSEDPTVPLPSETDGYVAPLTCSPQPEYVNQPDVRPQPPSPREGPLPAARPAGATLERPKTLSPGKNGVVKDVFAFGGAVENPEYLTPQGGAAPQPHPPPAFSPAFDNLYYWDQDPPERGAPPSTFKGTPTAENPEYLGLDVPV
Nature of the experiment: Kinase inhibition assay (33P transfer), ErbB2. As to conditions: read-out: ErbB2-2. In outline:
as §2

Another experiment concerns the target T8, Zap-70 (Homo sapiens, UniProt P43403).
T8 construct: Kinases are expressed as either kinase domains or full length constructs; made in house
T8 sequence (P43403 1-619): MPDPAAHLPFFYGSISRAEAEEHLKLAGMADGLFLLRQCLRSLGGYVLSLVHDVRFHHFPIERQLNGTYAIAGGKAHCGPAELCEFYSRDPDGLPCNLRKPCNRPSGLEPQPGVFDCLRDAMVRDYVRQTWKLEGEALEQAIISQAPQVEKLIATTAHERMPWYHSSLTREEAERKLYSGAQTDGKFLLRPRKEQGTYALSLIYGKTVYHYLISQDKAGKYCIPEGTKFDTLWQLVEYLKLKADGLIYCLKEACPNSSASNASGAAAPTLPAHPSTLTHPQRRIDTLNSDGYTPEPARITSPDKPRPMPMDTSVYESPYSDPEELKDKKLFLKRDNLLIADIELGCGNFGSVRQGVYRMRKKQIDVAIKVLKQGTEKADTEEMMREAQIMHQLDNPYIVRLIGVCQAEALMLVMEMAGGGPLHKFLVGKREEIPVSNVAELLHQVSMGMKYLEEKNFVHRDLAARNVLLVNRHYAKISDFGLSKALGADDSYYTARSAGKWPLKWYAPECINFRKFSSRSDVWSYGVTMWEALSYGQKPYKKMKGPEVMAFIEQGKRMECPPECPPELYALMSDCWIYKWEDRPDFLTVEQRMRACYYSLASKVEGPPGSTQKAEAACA
Nature of the experiment: Kinase inhibition assay (33P transfer), Zap-70. As to conditions: read-out: Zap-1. In outline: as §1

In another experiment the target is T9, PDGFRB (Homo sapiens, UniProt P09619).
T9 construct: Kinases are expressed as either kinase domains or full length constructs; made in house
Nature of the experiment: Kinase inhibition assay (33P transfer), PDGFRB. The settings on record: read-out: PDGFRB-1.

Another experiment addresses T10, c-Met (Homo sapiens, UniProt P08581).
T10 construct: Kinases are expressed as either kinase domains or full length constructs; made in house
Nature of the experiment: Kinase inhibition assay (33P transfer), c-Met. The settings on record: Table 2, kinase inhibition class; read-out: Met-1. The method in brief:
as §2

T1 sequence (P06239 whole entry, species assumed, the tested form may be a part): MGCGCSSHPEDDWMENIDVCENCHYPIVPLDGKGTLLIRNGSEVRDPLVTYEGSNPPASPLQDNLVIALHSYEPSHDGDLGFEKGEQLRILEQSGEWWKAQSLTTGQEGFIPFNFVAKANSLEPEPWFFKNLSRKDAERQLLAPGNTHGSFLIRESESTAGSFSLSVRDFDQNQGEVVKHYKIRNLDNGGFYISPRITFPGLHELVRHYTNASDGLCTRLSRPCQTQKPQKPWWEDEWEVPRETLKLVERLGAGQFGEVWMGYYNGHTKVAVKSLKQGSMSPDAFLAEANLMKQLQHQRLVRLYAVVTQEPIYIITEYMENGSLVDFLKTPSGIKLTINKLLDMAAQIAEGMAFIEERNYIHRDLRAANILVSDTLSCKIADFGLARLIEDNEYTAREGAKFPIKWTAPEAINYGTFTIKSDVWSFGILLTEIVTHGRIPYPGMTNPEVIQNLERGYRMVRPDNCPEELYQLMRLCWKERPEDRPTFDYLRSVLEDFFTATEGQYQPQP
T5 sequence (P00533 25-1210, species assumed): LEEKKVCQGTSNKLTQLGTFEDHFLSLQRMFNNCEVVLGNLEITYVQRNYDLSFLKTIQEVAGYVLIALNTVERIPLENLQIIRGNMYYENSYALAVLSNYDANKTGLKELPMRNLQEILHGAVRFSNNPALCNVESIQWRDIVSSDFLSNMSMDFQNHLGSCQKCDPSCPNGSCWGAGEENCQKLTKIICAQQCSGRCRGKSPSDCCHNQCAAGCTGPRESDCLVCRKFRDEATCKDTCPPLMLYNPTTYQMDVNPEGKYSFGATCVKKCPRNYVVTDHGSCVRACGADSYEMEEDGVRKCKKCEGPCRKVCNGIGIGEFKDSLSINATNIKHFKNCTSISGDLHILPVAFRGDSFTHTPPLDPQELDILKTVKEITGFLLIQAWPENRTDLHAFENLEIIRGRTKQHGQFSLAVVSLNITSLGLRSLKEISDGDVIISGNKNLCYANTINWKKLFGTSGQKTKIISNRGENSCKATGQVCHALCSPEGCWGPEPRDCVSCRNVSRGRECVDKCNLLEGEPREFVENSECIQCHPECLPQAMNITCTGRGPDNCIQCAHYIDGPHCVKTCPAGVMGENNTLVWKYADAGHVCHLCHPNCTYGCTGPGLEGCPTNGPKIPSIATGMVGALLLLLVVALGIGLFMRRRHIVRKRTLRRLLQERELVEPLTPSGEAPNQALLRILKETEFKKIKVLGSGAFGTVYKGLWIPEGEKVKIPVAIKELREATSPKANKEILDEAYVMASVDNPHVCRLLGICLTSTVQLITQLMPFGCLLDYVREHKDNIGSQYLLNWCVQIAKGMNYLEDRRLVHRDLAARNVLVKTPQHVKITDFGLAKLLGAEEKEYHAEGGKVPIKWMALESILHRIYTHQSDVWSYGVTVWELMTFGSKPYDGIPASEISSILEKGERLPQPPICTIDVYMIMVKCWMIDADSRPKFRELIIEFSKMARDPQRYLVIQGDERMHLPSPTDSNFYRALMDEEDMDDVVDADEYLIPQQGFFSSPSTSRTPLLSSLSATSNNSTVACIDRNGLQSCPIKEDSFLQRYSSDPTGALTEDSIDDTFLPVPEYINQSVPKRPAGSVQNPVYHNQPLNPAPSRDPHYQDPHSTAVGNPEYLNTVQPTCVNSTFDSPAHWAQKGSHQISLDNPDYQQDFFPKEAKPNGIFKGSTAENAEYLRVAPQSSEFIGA
T6 sequence (Q9Y243 whole entry, the tested form may be a part): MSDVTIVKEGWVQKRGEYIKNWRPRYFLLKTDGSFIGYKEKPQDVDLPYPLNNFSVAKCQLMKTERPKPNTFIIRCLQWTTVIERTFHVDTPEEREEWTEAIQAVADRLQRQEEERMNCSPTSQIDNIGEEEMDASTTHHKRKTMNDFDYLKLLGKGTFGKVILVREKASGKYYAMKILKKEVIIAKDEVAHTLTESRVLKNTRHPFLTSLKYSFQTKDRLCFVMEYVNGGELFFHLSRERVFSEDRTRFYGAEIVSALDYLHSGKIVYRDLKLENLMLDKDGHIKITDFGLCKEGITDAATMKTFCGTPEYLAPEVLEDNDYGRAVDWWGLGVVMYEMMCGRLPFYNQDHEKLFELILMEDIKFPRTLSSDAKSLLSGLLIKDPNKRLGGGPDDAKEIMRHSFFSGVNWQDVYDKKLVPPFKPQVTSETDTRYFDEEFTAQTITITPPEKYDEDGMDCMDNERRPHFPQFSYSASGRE
T10 sequence (P08581 25-1390): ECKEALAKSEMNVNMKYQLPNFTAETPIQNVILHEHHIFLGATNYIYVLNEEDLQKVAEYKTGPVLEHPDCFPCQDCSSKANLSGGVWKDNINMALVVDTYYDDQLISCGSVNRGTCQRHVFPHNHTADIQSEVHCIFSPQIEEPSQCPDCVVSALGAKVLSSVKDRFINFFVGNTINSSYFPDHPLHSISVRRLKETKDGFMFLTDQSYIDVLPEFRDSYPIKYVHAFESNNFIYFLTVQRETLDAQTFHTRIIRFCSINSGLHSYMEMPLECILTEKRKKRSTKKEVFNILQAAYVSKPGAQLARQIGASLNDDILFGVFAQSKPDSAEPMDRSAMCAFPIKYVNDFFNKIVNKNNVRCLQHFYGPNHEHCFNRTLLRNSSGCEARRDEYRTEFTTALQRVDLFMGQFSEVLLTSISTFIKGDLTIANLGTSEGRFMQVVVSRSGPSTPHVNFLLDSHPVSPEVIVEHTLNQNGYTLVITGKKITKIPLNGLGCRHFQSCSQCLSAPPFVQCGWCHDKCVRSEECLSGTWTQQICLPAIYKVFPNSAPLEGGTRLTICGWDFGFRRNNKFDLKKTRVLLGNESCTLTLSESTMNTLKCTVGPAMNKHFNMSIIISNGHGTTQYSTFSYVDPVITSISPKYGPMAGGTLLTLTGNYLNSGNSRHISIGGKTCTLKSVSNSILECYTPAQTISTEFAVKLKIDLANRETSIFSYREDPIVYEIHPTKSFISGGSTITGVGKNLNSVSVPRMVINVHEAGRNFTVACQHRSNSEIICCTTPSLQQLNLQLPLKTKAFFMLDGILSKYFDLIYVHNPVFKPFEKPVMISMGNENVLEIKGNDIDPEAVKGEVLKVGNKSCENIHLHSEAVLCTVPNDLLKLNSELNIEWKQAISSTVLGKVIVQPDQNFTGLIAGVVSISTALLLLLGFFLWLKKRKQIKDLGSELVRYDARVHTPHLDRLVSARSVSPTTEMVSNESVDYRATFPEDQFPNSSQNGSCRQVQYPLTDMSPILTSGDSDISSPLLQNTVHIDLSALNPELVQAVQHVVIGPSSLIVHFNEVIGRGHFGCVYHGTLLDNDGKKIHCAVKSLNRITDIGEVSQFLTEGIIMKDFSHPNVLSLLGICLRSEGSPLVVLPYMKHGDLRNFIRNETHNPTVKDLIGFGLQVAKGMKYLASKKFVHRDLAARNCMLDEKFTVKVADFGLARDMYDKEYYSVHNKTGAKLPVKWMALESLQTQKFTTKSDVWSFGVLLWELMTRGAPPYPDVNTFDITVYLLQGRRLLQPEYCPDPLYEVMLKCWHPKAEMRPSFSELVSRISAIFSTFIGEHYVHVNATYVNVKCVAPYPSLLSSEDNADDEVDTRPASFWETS

For the compound `CN(c1cccc(Cl)c1)c1ncnc(NCCOCCO)n1` [Compound 746], the IC50 at Lck, at Itk, against IGFR-1, on Kdr (read-out: KDR-1), at EGFR and on AKT was above 13.9 µM in each case. Also, the IC50 on ErbB2, at Zap-70, on PDGFRB and on c-Met was above 13.9 µM throughout.
In the case of `COc1ccc(Nc2ncnc(N3CCCc4ccc(C(F)(F)F)cc43)n2)cc1OC` [Compound 535], the IC50 at Lck was 0.927 to 5.56 µM; at Itk it was above 10.4 µM; against IGFR-1, above 10.4 µM; on Kdr (read-out: KDR-1), 0.927 to 5.56 µM; at EGFR, below 0.927 µM; at AKT it was above 10.4 µM. For the same compound, the IC50 on ErbB2 is below 0.927 µM; on Zap-70, above 10.4 µM; at PDGFRB, 5.56 to 8.11 µM; at c-Met, 0.927 to 5.56 µM.
With `COc1cc(Nc2ncnc(Oc3ccc(OCc4ccccc4)cc3)n2)cc(OC)c1OC` [Compound 530], the IC50 at Lck, on Itk, against IGFR-1, at Kdr (read-out: KDR-1), on EGFR and at AKT was above 9.77 µM throughout. The IC50 at ErbB2, on Zap-70, on PDGFRB and at c-Met was above 9.77 µM each time.
As to `COc1cc(Nc2ncnc(-n3c(NCc4ccc(O)cc4)nc4ccccc43)n2)cc(OC)c1OC` [Compound 561], the IC50 on Lck is below 0.801 µM; at Itk it was above 9.01 µM; at IGFR-1 it was above 9.01 µM; at Kdr (KDR-1) it was below 0.801 µM; on EGFR it was above 9.01 µM; at AKT, above 9.01 µM. Moreover, the IC50 is above 9.01 µM on ErbB2, above 9.01 µM on Zap-70, below 0.801 µM on PDGFRB and above 9.01 µM at c-Met.
Take `COc1cc(Nc2ncnc(Nc3ccc4c(c3)CCC4)n2)cc(OC)c1OC` [Compound 629]: the IC50 at Lck was below 1.02 µM; on Itk, 1.02 to 6.1 µM; against IGFR-1 it was below 1.02 µM; on Kdr (read-out: KDR-1) it was 1.02 to 6.1 µM; at EGFR, 1.02 to 6.1 µM; at AKT, above 11.4 µM. The IC50 at ErbB2 is 1.02 to 6.1 µM; on Zap-70, 6.1 to 8.9 µM; on PDGFRB it was below 1.02 µM; at c-Met, 6.1 to 8.9 µM.
Turning to `CCN(CC)c1ccc(Nc2ncnc(N3CCCc4cc(C)ccc43)n2)cc1` [Compound 779], the IC50 at Lck, at Itk, against IGFR-1, at Kdr (read-out: KDR-1), at EGFR and at AKT was above 11.6 µM each time. Further, the IC50 on ErbB2, on Zap-70, at PDGFRB and on c-Met was above 11.6 µM each time.
As to `CN(c1cccc(Cl)c1)c1ncnc(Nc2ccccc2)n1` [Compound 748], the IC50 is 1.28 to 7.7 µM at Lck; above 14.4 µM on Itk; 7.7 to 11.2 µM on IGFR-1; 7.7 to 11.2 µM on Kdr (read-out: KDR-1); below 1.28 µM at EGFR; above 14.4 µM at AKT. In addition, the IC50 was 1.28 to 7.7 µM on ErbB2, above 14.4 µM at Zap-70, 1.28 to 7.7 µM at PDGFRB and 1.28 to 7.7 µM on c-Met.
For `COc1cc(Nc2ncnc(NCCc3ccccc3)n2)cc(OC)c1OC` [Compound 628], the IC50 at Lck is 1.05 to 6.29 µM; at Itk it was above 11.8 µM; on IGFR-1 it was 1.05 to 6.29 µM; at Kdr (read-out: KDR-1) it was 6.29 to 9.18 µM; at EGFR, 1.05 to 6.29 µM; on AKT it was above 11.8 µM. The IC50 on ErbB2 is above 11.8 µM; at Zap-70 it was above 11.8 µM; on PDGFRB, 1.05 to 6.29 µM; at c-Met it was above 11.8 µM.
Take `CCOc1cccc(Nc2ncnc(Nc3ccc(OC)c(OC)c3)n2)c1` [Compound 783]: the IC50 on Lck was 1.09 to 6.53 µM; on Itk, above 12.2 µM; at IGFR-1, 1.09 to 6.53 µM; at Kdr (read-out: KDR-1), 9.53 to 12.2 µM; on EGFR, above 12.2 µM; at AKT it was above 12.2 µM. Besides, the IC50 on ErbB2 was 6.53 to 9.53 µM; on Zap-70, above 12.2 µM; at PDGFRB, 6.53 to 9.53 µM; at c-Met it was above 12.2 µM.
For `CN(c1cccc(Cl)c1)c1ncnc(Nc2cccc(Br)c2)n1` [Compound 707], the IC50 at Lck is above 11.5 µM; on Itk it was above 11.5 µM; against IGFR-1, above 11.5 µM; at Kdr (read-out: KDR-1) it was above 11.5 µM; at EGFR it was below 1.02 µM; at AKT it was above 11.5 µM. Further, the IC50 at ErbB2, at Zap-70, at PDGFRB and on c-Met was above 11.5 µM in each case.
As to `CCOC(=O)CNc1ncnc(N2CCCc3cc(C)ccc32)n1` [Compound 761], the IC50 on Lck, on Itk, against IGFR-1, at Kdr (read-out: KDR-1), on EGFR and on AKT was above 13.7 µM each time. Further, the IC50 at ErbB2, on Zap-70, on PDGFRB and at c-Met was above 13.7 µM throughout.
In the case of `COC(=O)c1sccc1Nc1ncnc(N2CCCc3cc(C)ccc32)n1` [Compound 767], the IC50 at Lck, on Itk, at IGFR-1, at Kdr (read-out: KDR-1), at EGFR and at AKT was above 11.8 µM in each case. The IC50 on ErbB2, at Zap-70, at PDGFRB and on c-Met was above 11.8 µM throughout.
With `COC(=O)Cc1cccc(Nc2ncnc(-n3c(NCc4ccccc4)nc4ccccc43)n2)c1` [Compound 545], the IC50 on Lck was 0.859 to 5.16 µM; at Itk it was above 9.67 µM; against IGFR-1 it was above 9.67 µM; on Kdr (read-out: KDR-1), below 0.859 µM; at EGFR, 0.859 to 5.16 µM; on AKT, above 9.67 µM. Further, the IC50 on ErbB2 was 7.52 to 9.67 µM; on Zap-70, above 9.67 µM; at PDGFRB it was below 0.859 µM; at c-Met it was above 9.67 µM.
Take `COc1cc(Nc2ncnc(Nc3ccc4nn(C)cc4c3)n2)cc(OC)c1OC` [Compound 556]: the IC50 at Lck was below 0.982 µM; on Itk, 0.982 to 5.89 µM; on IGFR-1 it was below 0.982 µM; at Kdr (read-out: KDR-1), 0.982 to 5.89 µM; at EGFR, 0.982 to 5.89 µM; at AKT, above 11 µM. In addition, the IC50 on ErbB2 was below 0.982 µM; at Zap-70, above 11 µM; at PDGFRB it was below 0.982 µM; on c-Met, above 11 µM.
